Patent US6852744B2, “Pyrrolidine derivatives and their use as chymase inhibitor” (Dainippon Pharmaceutical Co., Ltd., priority 2000, dated 2005)
Positions count from the first letter of the chain named.

What was measured:
in vivo = settings: male, ddy, mouse, po
[1] = Toxicity study, 2 weeks oral; type: in vivo; settings: five-week-old male ddy mice; orally once a day for 2 weeks; 30 and 300 mg/kg/day
Description: Five-week-old male ddy mice were administered orally once a day for 2 weeks with the compound I-A-1 at dose levels of 30 and 300 mg/kg/day.

monkey chymase = target: T1, monkey chymase (Macaca fascicularis, UniProt P56435); test: Monkey chymase inhibitory activity (in vitro, angiotensin I substrate); type: biochemical; settings: chymase purified from monkey cheek pouch and stomach; substrate angiotensin I; 37° C.; read-out: Monkey Chymase Inhibition (IC50:nM)
T1 construct: chymase was extracted from homogenized monkey cheek pouch and stomach; from tissue; host or cells: monkey cheek pouch and stomach
T1 sequence (P56435 22-247): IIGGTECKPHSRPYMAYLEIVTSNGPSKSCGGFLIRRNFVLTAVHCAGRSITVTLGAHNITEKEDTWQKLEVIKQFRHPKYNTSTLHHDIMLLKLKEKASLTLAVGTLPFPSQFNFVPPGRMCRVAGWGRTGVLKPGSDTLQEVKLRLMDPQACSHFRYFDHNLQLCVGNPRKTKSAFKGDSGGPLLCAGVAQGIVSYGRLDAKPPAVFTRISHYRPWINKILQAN
Description: (§1) The inhibitory activities of the compounds on monkey chymase and human chymase were tested in vitro. The test compounds are as shown by Compound Nos. in Tables 13 and 14.
Preparation of Monkey Chymase
Chymase was purified from monkey cheek pouch and stomach in the following manner.
Briefly, chymase was extracted from homogenized monkey cheek pouch and stomach with 0.01 mol/1000 ml sodium phosphate buffer, pH 7.4, containing 2 mol/1000 ml KCl and 0.1% Nonidet P-40 (Amresco Inc.). The solution containing chymase was applied to a heparin actigel column, and the chymase-rich fractions were collected.
(§2) Measurement of Chymase Inhibitory Activity (In Vitro Assay)
(§3) Briefly, the purified monkey or human chymase was diluted to an appropriate concentration with 0.01 mol/1000 ml sodium phosphate buffer, pH 7.4, containing 2 mol/1000 ml KCl and 0.1% Nonidet P-40 and used as enzyme solution. Angiotensin I (Peptide Institute Inc.) was diluted with water to 5 mg/ml and used as substrate solution. Test compounds were serially diluted with 10% DMSO. […] After pre-incubation of the mixture at 37° C., 20 μl of the substrate solution was added to the enzyme-test compound mixture and the new mixture was incubated at 37° C. Fifty μl of 30% trichloroacetic acid solution was finally added to stop the enzymatic reaction.
(§4) The amount of L-His-L-Leu was measured as angiotensin II produced by the enzymatic reaction. Briefly, 10 μl of the reaction mixture and 10 μl of 1% orthophthalaldehyde solution dissolved in methanol were mixed with 100 μl of 2 mol/1000 ml NaOH and kept at room temperature. The reaction was then stopped by adding 10 μl of 6 mol/1000 ml HCl.

human chymase = target: T2, human chymase (Homo sapiens, UniProt P23946); test: Human chymase inhibitory activity (in vitro, angiotensin I substrate); type: biochemical; settings: recombinant human chymase (COS7 cells); substrate angiotensin I; 37° C.; read-out: Human Chymase Inhibition (IC50:nM)
T2 construct: made in house; host or cells: COS7 cells (transient transfection)
T2 sequence (P23946 22-247): T1 sequence (P56435 22-247) with S29F, V44A, K63E, Y159D, L201S, K221Q
Description: as §1
Preparation of Human Chymase
Human chymase was produced in mammalian cells using a recombinant DNA technique.
Construction of a human prochymase expression plasmid was performed in the following manner. Briefly, single stranded cDNA was synthesized from human heart mRNA (Clontech Laboratories, Inc.). Polymerase chain reaction amplification was carried out using the cDNA as a template and appropriate pairs of primers. The primer sequences were determined based on the human preprochymase. The amplified product was cloned into the plasmid pUC18, and then recloned into the plasmid pBluescript II KS(+) (Stratagene). Finally, the DNA fragment carrying the entire protein-coding sequences of the human preprochymase was inserted to a transient expression vector by the usual method to yield the human prochymase expression plasmid.
Transfection of COS7 cells with the human prochymase expression plasmid was carried out using the FuGene™ 6 transfection reagent (Boehringer Mannheim). About 7 hours after exposure to DNA, the culture medium was changed to a serum-free one. The culture supernatant was collected after 2 days culture.
Human prochymase was purified from the culture supernatant using a heparin actigel column as described above in the preparation of monkey chymase.
In order to produce active chymase, the human prochymase was incubated with dipeptidylpeptidase I (Sigma). The resultant active human chymase was purified using a heparin actigel column as described above. The active human chymase was eluted with 0.01 mol/1000 ml sodium phosphate buffer pH 7.4 containing 2 mol/1000 ml NaCl.
as §2
as §3, with “The chymase inhibitory activities of compounds I-A of this invention were measured according to the following method. Briefly,” for “Briefly,”
as §4, with “HCl. Finally, the fluorescence induced by the reaction was measured using in a photometer with an excitation wavelength of 355 nm and an emission wavelength of 460 nm. Chymase inhibitory activities of test compounds were expressed as 50% inhibitory concentration (IC50).” for “HCl.”

[2] = tested on: chymase-induced dye leakage; test: Skin permeability test: inhibition of vascular permeability (Evans Blue dye leakage); type: in vivo; settings: male Hartley guinea pigs, 100 mg/kg orally 1 hour before intradermal injection of human chymase
Description: Skin permeability test was carried out according to the following method. Briefly, male Hartley guinea pigs (350-460 g, Shizuoka Laboratory Animal Center, Japan) were anesthetized by intraperitoneal injection of Nembutal™ (30 mg/kg; Dainippon Pharmaceutical Co., Ltd., Japan). After shaving the guinea pigs dorsa, 50 μl of purified human chymase (Elastin Products Inc., USA) diluted with phosphate buffered saline (PBS) to a concentration of 1.8 units /55 μg protein/ml (1 unit of chymase represents the amount of chymase required to hydrolyze 1.0 μmole of N-benzoyl-L-tyrosine-ethyl ester (BTEE) per minute at 25° C.; pH 7.8) were injected intradermally into three dorsal sites of each animal. […] The amounts of dye leakage into the dorsal skins were measured according to the following method.
Briefly, the area around each injection site (16 mm diameter) was punched out from the inside of the skin, and the leaked dye was extracted by incubation of the punched skin in N,N-dimethylformamide (DMF, 3 ml) at 55° C. overnight. The absorbance of the dye extract was then measured using a spectrophotometer at a wavelength of 620 nm. […] The amount of chymase-induced dye leakage (ACDL) and the amount of solvent-induced dye leakage (ASDL) in each animal were calculated as the average of dye leakage from the three treated dorsal sites in each case. […]

concentration at 1 h (in vivo) [ng/mL] | IC50 (monkey chymase) [nM] | IC50 (human chymase) [nM] | Compound | treatment-related finding (body weight, diet consumption, heart, liver, kidney weight, necropsy finding, hematology, blood chemistry) [1] | Dye leakage inhibition rate (%) [2] [%]
480 | 3.8 | 55 | Cc1noc(C)c1C(=O)N[C@H](C(=O)N1CCC[C@H]1C(=O)N[C@@H](Cc1csc2ccccc12)C(=O)C(F)(F)F)C(C)C [I-A-1, N-[(1S)-2-((2S)-2-{N-[(1S)-1-(benzo[b]thiophen-3-yl-methyl)-3,3,3-trifluoro-2-oxopropyl]carbamoyl}pyrrolidinyl)-1-(methylethyl)-2-oxoethyl](3,5-dimethylisoxazol-4-yl)carboxamide] | no treatment-related finding | 34
570 | 5.1 | 36 | Cc1nnsc1C(=O)N[C@H](C(=O)N1CCC[C@H]1C(=O)N[C@@H](Cc1csc2ccccc12)C(=O)C(F)(F)F)C(C)C [I-A-20, N-[(1S)-2-((2S)-2-{N-[(1S)-1-(benzo[b]thiophen-3-ylmethyl)-3,3,3-trifluoro-2-oxopropyl]carbamoyl}pyrrolidinyl)-1-(methylethyl)-2-oxoethyl](4-methyl(1,2,3-thiadiazol-5-yl))carboxamide] | – | 59
